Test: Toxicity in Balb/c mouse xenografted with human HCT-116 cells assessed as body weight change at 10 mg/kg,ip administrated for 18 days by 3 times per week
Assay type: organism-based
Details: in vivo, 432 h, time 18 day

In the case of `CCc1c2c(nc3ccc(OC(=O)N4CCC(N5CCCCC5)CC4)cc13)-c1cc3c(c(=O)n1C2)COC(=O)[C@]3(O)CC` [IRINOTECAN], the Activity was “Toxic”.
